Assay results taken from ChEMBL document CHEMBL5212743, “Selectivity Literature for EUbOPEN Chemogenomics Library wave 3” (2023).
pIC50, pKi: −log10 of the molar value.

Tests used:
[1] = target: T1, Platelet-derived growth factor receptor beta (Homo sapiens, UniProt P09619); assay: Selectivity interaction (NanoBRET assay (HEK293T cells)) EUB0000321b PDGFRB
[2] = target: T1, Platelet-derived growth factor receptor beta; assay: Selectivity interaction (KinomeScan (DiscoverX)) EUB0000321b PDGFRB; conditions: at 100 nM
[3] = target: Receptor-type tyrosine-protein kinase FLT3 (Homo sapiens, UniProt P36888); assay: (§1) Selectivity interaction (NanoBRET assay (HEK293T cells)) EUB0000321b FLT3
[4] = target: Receptor-type tyrosine-protein kinase FLT3 (Homo sapiens, UniProt P36888, D835V); assay: as §1
[5] = target: Dual specificity tyrosine-phosphorylation-regulated kinase 1B (Homo sapiens, UniProt Q9Y463); assay: Selectivity interaction (KinomeScan (DiscoverX)) EUB0000321b DYRK1B; conditions: at 100 nM
[6] = target: Mitogen-activated protein kinase kinase kinase 5 (Homo sapiens, UniProt Q99683); assay: Selectivity interaction (NanoBRET assay (HEK293T cells)) EUB0000321b MAP3K5
[7] = target: T2, Mast/stem cell growth factor receptor Kit (Homo sapiens, UniProt P10721); assay: Selectivity interaction (KinomeScan (DiscoverX)) EUB0000321b KIT; conditions: at 100 nM
[8] = target: T3, Platelet-derived growth factor receptor alpha (Homo sapiens, UniProt P16234); assay: Selectivity interaction (NanoBRET assay (HEK293T cells)) EUB0000321b PDGFRA
[9] = target: T4, Dual specificity mitogen-activated protein kinase kinase 5 (Homo sapiens) (UniProt Q13163); assay: Selectivity interaction (KinomeScan (DiscoverX)) EUB0000321b MAP2K5; conditions: at 100 nM
T4 sequence (whole entry): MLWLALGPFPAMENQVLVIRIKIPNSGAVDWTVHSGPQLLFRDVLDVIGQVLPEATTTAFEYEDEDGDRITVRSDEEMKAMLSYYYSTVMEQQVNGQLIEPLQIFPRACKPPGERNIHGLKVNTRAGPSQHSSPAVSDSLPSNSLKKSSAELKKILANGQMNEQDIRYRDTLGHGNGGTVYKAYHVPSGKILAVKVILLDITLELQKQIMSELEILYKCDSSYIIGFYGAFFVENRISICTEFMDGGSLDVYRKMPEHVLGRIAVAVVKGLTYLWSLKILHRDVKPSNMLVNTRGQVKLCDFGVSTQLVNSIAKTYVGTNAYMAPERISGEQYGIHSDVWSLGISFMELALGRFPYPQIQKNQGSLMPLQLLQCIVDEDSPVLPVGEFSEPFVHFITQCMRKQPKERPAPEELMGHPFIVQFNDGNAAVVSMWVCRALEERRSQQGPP

[10] = target: T3, Platelet-derived growth factor receptor alpha; assay: Selectivity interaction (KinomeScan (DiscoverX)) EUB0000321b PDGFRA; conditions: at 100 nM
[11] = target: T2, Mast/stem cell growth factor receptor Kit; assay: Selectivity interaction (NanoBRET assay (HEK293T cells)) EUB0000321b KIT
[12] = target: Mitogen-activated protein kinase kinase kinase 5 (Homo sapiens) (UniProt Q99683); assay: Selectivity interaction (KinomeScan (DiscoverX)) EUB0000321b MAP3K5; conditions: at 100 nM
[13] = target: Dual specificity tyrosine-phosphorylation-regulated kinase 1A (Homo sapiens, UniProt Q13627); assay: Selectivity interaction (KinomeScan (DiscoverX)) EUB0000321b DYRK1A; conditions: at 100 nM
[14] = target: T5, Dual specificity mitogen-activated protein kinase kinase 5 (Homo sapiens, UniProt Q13163); assay: Selectivity interaction (NanoBRET assay (HEK293T cells)) EUB0000321b MAP2K5
T5 sequence (Q13163 whole entry): T4 sequence (whole entry)

[15] = target: Beta-3 adrenergic receptor (Homo sapiens, UniProt P13945); assay: Selectivity interaction (GPCR panel (PDSP screen)) EUB0000705a ADRB3
[16] = target: 5-hydroxytryptamine receptor 1A (Homo sapiens, UniProt P08908); assay: Selectivity interaction (GPCR panel (PDSP screen)) EUB0000705a HTR1A
[17] = target: T6, Alpha-2C adrenergic receptor (Homo sapiens, UniProt P18825); assay: Selectivity interaction (GPCR panel (PDSP screen)) EUB0000705a ADRA2C
T6 sequence (P18825 whole entry): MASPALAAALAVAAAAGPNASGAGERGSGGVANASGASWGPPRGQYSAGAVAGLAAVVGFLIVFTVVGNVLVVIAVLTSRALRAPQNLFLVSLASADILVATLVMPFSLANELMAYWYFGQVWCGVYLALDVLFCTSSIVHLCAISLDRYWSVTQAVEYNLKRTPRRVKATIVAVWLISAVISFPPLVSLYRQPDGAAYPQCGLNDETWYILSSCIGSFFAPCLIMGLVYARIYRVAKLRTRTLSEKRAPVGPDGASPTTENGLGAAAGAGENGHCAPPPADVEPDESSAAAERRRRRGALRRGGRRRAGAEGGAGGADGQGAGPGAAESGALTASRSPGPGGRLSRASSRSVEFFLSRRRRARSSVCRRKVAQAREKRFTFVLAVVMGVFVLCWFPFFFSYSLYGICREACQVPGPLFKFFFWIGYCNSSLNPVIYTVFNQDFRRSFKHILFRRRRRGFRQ

[18] = target: T7, Leucine-rich repeat serine/threonine-protein kinase 2 (Homo sapiens, UniProt Q5S007); assay: Selectivity interaction (KinomeScan (DiscoverX)) EUB0000705a LRRK2; conditions: at 1 µM
[19] = target: T8, Alpha-1A adrenergic receptor (Homo sapiens, UniProt P35348); assay: Selectivity interaction (GPCR panel (PDSP screen)) EUB0000705a ADRA1A
T8 sequence (P35348 whole entry): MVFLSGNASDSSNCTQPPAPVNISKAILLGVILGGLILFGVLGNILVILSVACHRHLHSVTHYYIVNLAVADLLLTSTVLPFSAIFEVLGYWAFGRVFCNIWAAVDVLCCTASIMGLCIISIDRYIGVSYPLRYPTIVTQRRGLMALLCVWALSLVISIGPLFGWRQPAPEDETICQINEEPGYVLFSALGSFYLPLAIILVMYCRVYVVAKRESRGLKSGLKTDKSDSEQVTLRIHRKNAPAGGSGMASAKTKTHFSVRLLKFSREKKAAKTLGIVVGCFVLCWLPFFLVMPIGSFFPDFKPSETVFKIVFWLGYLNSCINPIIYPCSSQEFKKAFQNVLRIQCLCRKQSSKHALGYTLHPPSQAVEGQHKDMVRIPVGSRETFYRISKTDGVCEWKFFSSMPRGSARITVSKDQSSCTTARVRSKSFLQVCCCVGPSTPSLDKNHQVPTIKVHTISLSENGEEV

[20] = target: T7, Leucine-rich repeat serine/threonine-protein kinase 2; assay: Selectivity interaction (NanoBRET assay (HEK293T cells)) EUB0000705a LRRK2
[21] = target: T9, Alpha-1D adrenergic receptor (Homo sapiens, UniProt P25100); assay: Selectivity interaction (GPCR panel (PDSP screen)) EUB0000705a ADRA1D
T9 sequence (P25100 whole entry): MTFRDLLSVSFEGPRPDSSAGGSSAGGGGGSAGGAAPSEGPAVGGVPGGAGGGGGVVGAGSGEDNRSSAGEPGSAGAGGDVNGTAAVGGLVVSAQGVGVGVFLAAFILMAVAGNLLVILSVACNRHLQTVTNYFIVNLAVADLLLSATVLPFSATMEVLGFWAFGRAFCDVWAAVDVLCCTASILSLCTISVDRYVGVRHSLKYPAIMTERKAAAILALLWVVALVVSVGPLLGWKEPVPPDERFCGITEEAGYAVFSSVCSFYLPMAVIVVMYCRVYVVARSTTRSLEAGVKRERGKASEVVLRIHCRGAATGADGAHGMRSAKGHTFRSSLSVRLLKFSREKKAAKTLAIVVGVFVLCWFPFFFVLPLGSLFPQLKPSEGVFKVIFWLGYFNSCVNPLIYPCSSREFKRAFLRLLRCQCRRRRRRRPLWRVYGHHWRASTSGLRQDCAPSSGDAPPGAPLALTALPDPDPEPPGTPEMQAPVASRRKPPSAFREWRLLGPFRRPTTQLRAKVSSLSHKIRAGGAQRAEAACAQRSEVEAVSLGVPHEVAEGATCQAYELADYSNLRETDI

Mu-type opioid receptor = Mu-type opioid receptor (Homo sapiens, UniProt P35372); assay: Selectivity interaction (GPCR panel (PDSP screen)) EUB0000705a OPRM1
Mu-type opioid receptor, sequence (P35372 whole entry): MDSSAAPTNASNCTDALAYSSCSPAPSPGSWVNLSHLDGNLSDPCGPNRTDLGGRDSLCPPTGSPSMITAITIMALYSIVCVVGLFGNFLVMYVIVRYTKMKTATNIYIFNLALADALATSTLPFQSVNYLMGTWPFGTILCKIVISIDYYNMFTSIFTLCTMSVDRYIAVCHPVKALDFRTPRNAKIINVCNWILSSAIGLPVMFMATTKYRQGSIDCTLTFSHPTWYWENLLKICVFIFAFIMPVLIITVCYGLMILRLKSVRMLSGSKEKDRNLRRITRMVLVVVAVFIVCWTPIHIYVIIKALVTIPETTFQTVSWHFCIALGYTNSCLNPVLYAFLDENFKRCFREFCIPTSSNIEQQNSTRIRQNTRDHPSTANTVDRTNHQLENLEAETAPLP

T3 sequence (P16234 whole entry): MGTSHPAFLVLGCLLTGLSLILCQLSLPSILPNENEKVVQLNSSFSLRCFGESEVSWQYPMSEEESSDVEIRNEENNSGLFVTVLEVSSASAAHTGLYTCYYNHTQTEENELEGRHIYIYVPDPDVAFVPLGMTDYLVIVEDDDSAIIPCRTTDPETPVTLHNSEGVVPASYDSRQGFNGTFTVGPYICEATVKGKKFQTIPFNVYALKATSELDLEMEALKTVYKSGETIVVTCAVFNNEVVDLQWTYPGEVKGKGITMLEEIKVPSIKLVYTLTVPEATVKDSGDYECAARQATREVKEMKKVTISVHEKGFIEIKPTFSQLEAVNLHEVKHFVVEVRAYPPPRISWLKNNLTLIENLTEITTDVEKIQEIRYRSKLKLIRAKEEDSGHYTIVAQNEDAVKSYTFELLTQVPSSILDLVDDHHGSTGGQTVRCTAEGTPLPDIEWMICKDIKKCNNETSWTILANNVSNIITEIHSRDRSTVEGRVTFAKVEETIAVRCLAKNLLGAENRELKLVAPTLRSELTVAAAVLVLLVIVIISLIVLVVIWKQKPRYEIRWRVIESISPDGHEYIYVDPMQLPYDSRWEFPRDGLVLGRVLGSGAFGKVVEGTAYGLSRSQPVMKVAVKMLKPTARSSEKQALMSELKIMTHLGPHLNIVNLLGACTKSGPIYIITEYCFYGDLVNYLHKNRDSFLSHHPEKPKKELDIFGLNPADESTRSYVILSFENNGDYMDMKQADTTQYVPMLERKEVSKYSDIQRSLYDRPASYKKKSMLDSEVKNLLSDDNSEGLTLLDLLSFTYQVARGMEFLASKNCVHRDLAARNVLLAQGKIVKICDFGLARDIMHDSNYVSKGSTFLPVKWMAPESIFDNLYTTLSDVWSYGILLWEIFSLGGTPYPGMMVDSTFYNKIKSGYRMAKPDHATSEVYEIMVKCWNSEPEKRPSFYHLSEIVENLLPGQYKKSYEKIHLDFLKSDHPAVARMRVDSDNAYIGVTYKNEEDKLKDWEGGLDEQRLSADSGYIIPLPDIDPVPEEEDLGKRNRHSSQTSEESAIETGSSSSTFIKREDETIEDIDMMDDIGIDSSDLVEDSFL
T1 sequence (P09619 whole entry): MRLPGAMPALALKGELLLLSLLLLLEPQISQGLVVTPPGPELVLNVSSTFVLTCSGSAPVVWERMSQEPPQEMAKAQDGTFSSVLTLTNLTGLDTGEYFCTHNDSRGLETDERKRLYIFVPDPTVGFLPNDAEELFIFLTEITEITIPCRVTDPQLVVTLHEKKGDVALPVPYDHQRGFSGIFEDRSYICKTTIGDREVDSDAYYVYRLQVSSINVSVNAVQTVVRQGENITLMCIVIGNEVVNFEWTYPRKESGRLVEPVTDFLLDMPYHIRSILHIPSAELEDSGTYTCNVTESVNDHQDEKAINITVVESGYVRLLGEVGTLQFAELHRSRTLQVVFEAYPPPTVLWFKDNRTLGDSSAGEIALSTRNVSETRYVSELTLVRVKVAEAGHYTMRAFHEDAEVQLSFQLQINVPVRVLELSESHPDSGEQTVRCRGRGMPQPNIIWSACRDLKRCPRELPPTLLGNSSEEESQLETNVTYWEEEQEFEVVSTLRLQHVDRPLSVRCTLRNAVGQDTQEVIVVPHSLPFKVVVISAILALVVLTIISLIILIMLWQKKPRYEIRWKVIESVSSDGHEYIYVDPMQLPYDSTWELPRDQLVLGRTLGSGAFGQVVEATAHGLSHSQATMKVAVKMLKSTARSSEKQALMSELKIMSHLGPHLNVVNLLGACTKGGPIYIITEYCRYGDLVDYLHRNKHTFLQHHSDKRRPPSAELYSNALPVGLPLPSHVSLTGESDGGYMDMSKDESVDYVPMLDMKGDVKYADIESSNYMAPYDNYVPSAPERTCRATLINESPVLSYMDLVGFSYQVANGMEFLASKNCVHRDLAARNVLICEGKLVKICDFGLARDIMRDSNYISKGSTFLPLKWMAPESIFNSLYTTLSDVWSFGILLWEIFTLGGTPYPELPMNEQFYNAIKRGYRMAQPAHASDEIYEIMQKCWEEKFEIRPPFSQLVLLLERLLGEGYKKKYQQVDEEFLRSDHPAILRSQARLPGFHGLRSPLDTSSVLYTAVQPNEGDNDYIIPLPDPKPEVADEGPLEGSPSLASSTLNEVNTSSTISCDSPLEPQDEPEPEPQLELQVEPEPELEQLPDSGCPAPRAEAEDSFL
T2 sequence (P10721 whole entry): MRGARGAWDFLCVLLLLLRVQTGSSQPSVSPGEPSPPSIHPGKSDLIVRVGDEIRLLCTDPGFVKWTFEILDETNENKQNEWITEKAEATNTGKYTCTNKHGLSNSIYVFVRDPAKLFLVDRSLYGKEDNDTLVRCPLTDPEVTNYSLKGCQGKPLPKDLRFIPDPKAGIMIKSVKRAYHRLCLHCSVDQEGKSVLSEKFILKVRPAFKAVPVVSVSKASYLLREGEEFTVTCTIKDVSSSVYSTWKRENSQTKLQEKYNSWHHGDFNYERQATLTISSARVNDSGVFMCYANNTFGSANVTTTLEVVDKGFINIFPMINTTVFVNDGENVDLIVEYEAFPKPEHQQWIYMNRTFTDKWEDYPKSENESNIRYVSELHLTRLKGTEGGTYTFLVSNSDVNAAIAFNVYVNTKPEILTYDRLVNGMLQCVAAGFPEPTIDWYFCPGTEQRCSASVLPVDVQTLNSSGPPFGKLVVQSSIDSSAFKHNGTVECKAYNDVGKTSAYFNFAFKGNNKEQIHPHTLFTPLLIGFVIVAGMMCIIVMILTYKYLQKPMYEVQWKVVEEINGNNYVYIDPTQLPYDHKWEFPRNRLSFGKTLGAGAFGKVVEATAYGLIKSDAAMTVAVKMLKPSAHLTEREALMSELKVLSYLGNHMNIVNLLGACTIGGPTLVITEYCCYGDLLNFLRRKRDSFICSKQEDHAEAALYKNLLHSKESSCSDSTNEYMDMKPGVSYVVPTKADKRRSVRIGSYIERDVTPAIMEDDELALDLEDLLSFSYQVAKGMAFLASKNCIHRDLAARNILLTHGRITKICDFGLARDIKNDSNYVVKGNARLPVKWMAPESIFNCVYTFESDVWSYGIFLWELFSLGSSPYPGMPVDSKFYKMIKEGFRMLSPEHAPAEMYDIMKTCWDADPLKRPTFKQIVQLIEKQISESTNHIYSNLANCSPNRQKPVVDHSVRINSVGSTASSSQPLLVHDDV
Dual specificity tyrosine-phosphorylation-regulated kinase 1B, sequence (Q9Y463 whole entry, looked up): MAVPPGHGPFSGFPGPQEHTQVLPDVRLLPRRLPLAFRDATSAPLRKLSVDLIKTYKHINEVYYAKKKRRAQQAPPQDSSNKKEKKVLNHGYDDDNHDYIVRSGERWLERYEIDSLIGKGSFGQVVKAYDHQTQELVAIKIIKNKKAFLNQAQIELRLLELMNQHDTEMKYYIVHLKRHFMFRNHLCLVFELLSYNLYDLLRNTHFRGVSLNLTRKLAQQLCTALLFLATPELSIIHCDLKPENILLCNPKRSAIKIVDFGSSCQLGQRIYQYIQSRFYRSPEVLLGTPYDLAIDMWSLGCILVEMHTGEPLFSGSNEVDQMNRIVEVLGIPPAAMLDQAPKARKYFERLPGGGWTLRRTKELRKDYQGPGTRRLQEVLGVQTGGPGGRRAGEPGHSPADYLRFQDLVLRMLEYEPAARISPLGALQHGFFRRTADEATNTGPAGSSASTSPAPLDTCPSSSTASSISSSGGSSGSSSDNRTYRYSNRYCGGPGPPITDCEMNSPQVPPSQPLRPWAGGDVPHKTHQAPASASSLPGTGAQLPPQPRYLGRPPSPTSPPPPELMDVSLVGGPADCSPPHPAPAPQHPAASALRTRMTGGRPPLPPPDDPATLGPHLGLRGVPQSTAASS
5-hydroxytryptamine receptor 1A, sequence (P08908 whole entry): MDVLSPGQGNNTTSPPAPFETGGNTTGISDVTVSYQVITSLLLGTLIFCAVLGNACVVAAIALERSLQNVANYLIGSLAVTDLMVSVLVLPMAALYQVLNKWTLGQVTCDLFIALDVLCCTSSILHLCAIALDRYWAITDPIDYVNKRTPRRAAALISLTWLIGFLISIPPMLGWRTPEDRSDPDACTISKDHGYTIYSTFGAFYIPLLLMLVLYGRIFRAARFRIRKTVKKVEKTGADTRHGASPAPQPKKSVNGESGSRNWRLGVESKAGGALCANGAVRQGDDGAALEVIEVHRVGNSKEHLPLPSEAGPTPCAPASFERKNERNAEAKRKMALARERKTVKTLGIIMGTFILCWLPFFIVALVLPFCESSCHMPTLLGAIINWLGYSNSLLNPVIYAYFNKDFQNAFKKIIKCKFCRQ
Beta-3 adrenergic receptor, sequence (P13945 whole entry): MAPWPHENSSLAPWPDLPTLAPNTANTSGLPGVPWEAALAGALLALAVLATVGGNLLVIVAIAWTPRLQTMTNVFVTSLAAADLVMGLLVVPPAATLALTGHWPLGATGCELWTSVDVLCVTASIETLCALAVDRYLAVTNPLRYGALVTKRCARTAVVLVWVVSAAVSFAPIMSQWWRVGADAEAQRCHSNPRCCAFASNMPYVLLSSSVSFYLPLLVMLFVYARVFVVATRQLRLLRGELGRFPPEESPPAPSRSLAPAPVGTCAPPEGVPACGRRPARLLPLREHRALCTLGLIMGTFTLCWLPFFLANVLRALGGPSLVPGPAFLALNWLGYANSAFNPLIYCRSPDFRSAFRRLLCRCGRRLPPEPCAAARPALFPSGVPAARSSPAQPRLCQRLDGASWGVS

In the case of `CN1CCN(C(=O)C(C)(C)c2ccc(C(=O)Nc3cn4cc(-c5ccncc5)ccc4n3)cc2)CC1` [T3-CLK], the pIC50 [1] was 5.52, the % of control [2] was 24% and the pIC50 [3] was 5.61. For the same molecule, the pIC50 [4] was 3.86, the % of control [5] was 4.4% and the pIC50 [6] was < 5.00. The % of control [7] was 14%, the pIC50 [8] was 5.60 and the % of control [9] was 4.9%. For the same molecule, the % of control [10] was 29%, the pIC50 [11] was 5.61 and the % of control [12] was 19%. The % of control [13] was 0.3% and the pIC50 [14] was < 5.00.
`CN1CCN(C(=O)C(C)(C)c2ccc(C(=O)Nc3cn4cc(-c5cc(C(C)(C)C)cc(C(C)(C)C)c5)ccc4n3)cc2)CC1` [T3-CLK-N] was tested, and the pKi [15] was < 5.00, the pKi [16] was 5.66 and the pKi [17] was < 5.00. For the same molecule, the % of control [18] was > 95%, the pKi [19] was 5.78 and the pIC50 [20] was < 5.00. For the same molecule, the pKi [21] was < 5.00 and the pKi (Mu-type opioid receptor) was 5.34.
